# Entries after “also recorded” stand apart in the source; their conditions may differ.
# What was measured:
# [1] = tested on: RCS rats; experiment: Extracellular recording from superior colliculus after intravitreal injection; assay type: in vivo, rat
# Source text: FIGS. 27C-27F depict data related to administration of Rubpy-C17. White light was used for illumination in panels A, C, and D, while blue light (450 nm) was used in panels B, E, and F.
# This finding was reproduced in 3 of 3 RCS rats injected with Rubpy-C17, and in 2 of 2 control (sham injection) RCS rats.
# [2] = tested on: chromaffin cells; experiment: Cell-attached patch test for membrane perforation; assay type: cell-based, mouse; settings: in patch pipette, RubpyC17 18 μM, 10 min, amphotericin B within 5 min
# Source text: FIGS. 21A-21H depict data from various experiments related to characteristics of RubpyC17-loaded cells. […] Inset images shown to the right of trace confirmed proper integration of RubpyC17 in patched cells. FIGS. 21C-21E show the light-induced action potential firing in chromaffin cells was not due to biophysical changes in voltage-gated ion channels as there were no significant changes in current-voltage relationships (21C-21D) nor in steady-state activation curve (21E) in RubpyC17-loaded chromaffin cells before (open circle) or during (open circle) light illumination. […] Peak inward currents from each stimulation jump were plotted against corresponding stimulating voltages (n=6). […] Data from representative cell is shown (n=5). […] Currents resulting from capacitor-like behavior of chromaffin cell membranes during hyperpolarizing jumps to −85 mV from a resting membrane potential of −80 mV were recorded 5 min following giga-seal formation for amphoterecin B (bottom trace) or 10 min following giga-seal formation for RubpyC17 (top trace).
# Finally, to test whether illumination of RubpyC17 incorporated in cell membranes causes nonspecific membrane poration or other damage, 18 μM RubpyC17 was loaded inside a patch pipette and attached to a cell (gigaseal formation) in the cell-attached configuration. This is the same configuration used routinely for perforated-patch recording. […]
# [3] = tested on: HEK293T cells; experiment: Effect of PF6:Cl counter ion ratio of Rubpy-C17 on HEK293T cells; assay type: cell-based
# Method: In some embodiments, the 20 mg of Rubpy-C17 is stored in −20° C. with desiccant in the dark. […] 253 μl of DMSO is then added into the original bottle containing Rubpy-C17 to make 100 mM stock solution. In some embodiments, the stock solution is aliquot and stored in −20° C. with desiccant in the dark.
# In some examples, on the day before or on, the same day of the experiment, the following 2.5 mM external solution is prepared using the following steps. The external solution is warmed up to 37° C. For […] of the external solution, 0.176 grams of absorbic acid was added. Another 240 μL 5M NaOH was added to adjust the pH to between about 7.2-7.4. The absorbic solution can then be filtered through a 0.2 μm filter. The solution is then stored in the dark in 4° C. In some examples, the solution must be used within one week.
# The 100 mM of Rubpy solution is first thawed from −20° C. 100 mM Rubpy is then diluted to 10 mM Rubpy: 2 μL 100 mM Rubpy+18 μL DMSO. In some examples, this is vortexted to mix and then centrifuged down with a small bench-top. The culture, medium is aspirated and the cells are rinsed with external solution several times. The external solution can then be aspirated. In some examples, enough of the external solution is left on the cells to prevent it from drying. 500 μL of external solution with 2.5 mM of ascorbic acid can then be added.
# In some examples, 1 μL of 10 mM of Rubpy to […] of external solution with 2.5 mM ascorbic acid and mixed well. This should produce a final concentration of 10 μM of Rubpy with 0.1% DMSO. This mixed solution is then added to the above referenced cells and incubated for 10 minutes.
# The solution can then be aspirated from the plate and rinsed with regular external solution several times. 2 mL of external solution is added to 2.5 mM ascorbic acid for recording. For each plate, a baseline control is taken by recording the first cell before performing any light-stimulating protocol. The light-stimulus can include 10-40 s in duration and bandpassed at 455-495 nm (blue light).
# As discussed above, the mixture a 10 μM of RubpyC17 solution was placed in 10 HEK293T cells.
structure (smiles),measurement,setting,value
"CCCCCCCCCCCCCCCCCc1ccnc(-c2cc(C)ccn2)c1.F[P-](F)(F)(F)(F)F.F[P-](F)(F)(F)(F)F.[Ru+2].c1ccc(-c2ccccn2)nc1.c1ccc(-c2ccccn2)nc1 [RubpyC17, [Ru(bpy)2(bpy-C17)](PF6)2]",rats in which the finding was reproduced,[1]; RCS rats injected with Rubpy-C17,3 of 3
same,time after injection with light-induced SC electrical responses,"[1]; eye injection, RCS rats",up to 3 days
same,light-elicited electrical activity in superior colliculus field recording,"[1]; intravitreal, final concentration 100 μM, 30 minutes later, blind RCS rats",elicited reproducible and stereotypical electrical activity
same,capacitive charging transient (membrane perforation),[2],an increase in the capacitive charging transient was not detected; also recorded: did not perforate chromaffin cells
same,fluorescence pattern,[3]; only PF6 counter ions,punctuate fluorescence
same,Cell Death,[3]; only counter ion is chloride,cell death is observed
